The values below come from US4452807A, “(R,S)-1-(3-Hydroxy-4-methoxybenzoyl)-3-hydroxy-2-pyrrolidinone intermediates therefor and use for treating cerebral insufficiency” (Hoffmann-La Roche Inc., priority 1981, dated 1984).

This data set is described as follows: Acute toxicity, single oral administration to mice. The settings on record: mouse, in vivo, p.o. From the text: Moreover, the Table contains data concerning the acute toxicity, that is, LD50 in mg/kg in the case of single oral administration to mice.
`COc1ccc(C(=O)N2CC[C@@H](O)C2=O)cc1O` [R, (R)-1-(3-hydroxy-4-methoxybenzoyl)-3-hydroxy-2-pyrrolidinone]: the LD50 (in general, the dose at which mortality reaches 50%) was more than 5000 mg/kg.

In the case of `COc1ccc(C(=O)N2CCC(O)C2=O)cc1O` (racemic) [R,S, (R,S)-1-(3-hydroxy-4-methoxybenzoyl)-3-hydroxy-2-pyrrolidinone], the LD50 was more than 5000 mg/kg.

Compound `COc1ccc(C(=O)N2CC[C@H](O)C2=O)cc1O` [S, (S)-1-(3-hydroxy-4-methoxybenzoyl)-3-hydroxy-2-pyrrolidinone] came in with an LD50 of more than 4000 mg/kg.
